Source: PMC12603070, “A high-throughput screening approach to discover potential colorectal cancer chemotherapeutics: repurposing drugs to identify novel disruptors of 14-3-3 proteins” (Cell Death & Disease, 2025)
pKd: −log10 of the molar value.

Experiments:
14-3-3ζ = molecular target: T1, 14-3-3ζ (Homo sapiens, UniProt P63104); test: Isothermal titration calorimetry (ITC) with purified 14-3-3ζ; format: binding; details: 750-1,000 μM ligand, 70 μM protein, 1-4% DMSO
T1 construct: made in house; host or cells: Escherichia coli BL21 LOBSTR-RIL
T1 sequence (P63104 1-245): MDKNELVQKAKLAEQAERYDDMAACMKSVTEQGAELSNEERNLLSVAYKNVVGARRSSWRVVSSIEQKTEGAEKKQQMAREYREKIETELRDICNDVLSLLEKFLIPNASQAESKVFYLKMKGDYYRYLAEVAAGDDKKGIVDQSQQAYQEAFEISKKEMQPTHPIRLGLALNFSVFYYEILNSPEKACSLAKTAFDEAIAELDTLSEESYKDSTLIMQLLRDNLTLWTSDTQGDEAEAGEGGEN
Description: application to isothermal titration calorimetry (ITC) studies.
ITC experiments were performed, but the solubility incompatibility gave unclear data, with a […]
All ITC experiments were conducted at 750-1,000 μM of the ligand (in the syringe: titrant), with 70 μM of protein in the cell: titrand); each injection introduced approximately 4 nmol of ligand. All experiments were conducted at 1 -4% DMSO based on drug’s solubility. […]

His-14-3-3ζ = molecular target: T2, His-14-3-3ζ (Homo sapiens, UniProt P63104); test: Surface plasmon resonance (SPR) on immobilized His-14-3-3ζ; format: binding
T2 construct: made in house; host or cells: Escherichia coli BL21 LOBSTR-RIL
T2 sequence (P63104 1-245): T1 sequence (P63104 1-245)
Description: The published protocol of Higuchi & Ottmann as followed with modifications to express 14-3-3ζ [44]. Escherichia coli BL21 LOBSTR-RIL cells were transformed with a plasmid encoding His-14-3-3ζ. The transformed cells were grown in TB medium containing appropriate antibiotic at 37 °C with shaking at 200 rpm until the culture reached an optical density of 0.6–0.8 at 600 nm (OD600). Protein expression was induced by the addition of isopropyl β-D-1-thiogalactopyranoside to a final concentration of 0.4 mM. Subsequently, the temperature was decreased to 16 °C and the culture incubated for another 16 h. Cells were harvested by centrifugation at 7000 × g for 20 min at 21 °C. The supernatant was discarded, and the cell pellet containing 14-3-3ζ was mixed and resuspended in lysis buffer (50 mM Tris, pH 7.80), 500 mM NaCl, 5 mM imidazole, 5% glycerol, 1 mM PMSF & 1 mM Benzamidine. Cells were lysed by sonication on ice using a probe sonicator (20 cycles of 10 s on, 20 s off, amplitude 70%). The lysate was centrifuged at 30,000 × g for 30 min at 4 °C to remove cell debris. The supernatant was collected for further purification. The 14-3-3ζ was isolated from the lysate by affinity chromatography (Ni-NTA beads, Qiagen). For further purification, the eluant was subjected to size exclusion chromatography using a Superdex 75 gel filtration column (HiLoad 16/600, GE Healthcare), pre-equilibrated with SEC buffer (20 mM Tris, pH 7.5, 150 mM NaCl, 1 mM TCEP). The protein solution was concentrated by ultrafiltration, flash frozen, and stored at −80 °C.
The general protocol for evaluating 14-3-3ζ was adapted from Hartman et al. and modified for our instrument and sensors. The SPR experiments were performed using a Open surface plasmon resonance instrument (OpenSPR^TM, Nicoya, Kitchener-Waterloo, Canada), and high sensitivity-nitrilotriacetic acid (HS-NTA) sensors. The sensor chip surface was first activated with 40 mM of NiCl2 at a flow rate of 20 μL/min using 20 mM HEPES pH 7.8, 150 mM NaCl and 1% DMSO as the running buffer. All running buffers were filtered and degassed prior to use. 100 μg/mL His-14-3-3ζ protein in 20 mM HEPES pH 7.8, 150 mM NaCl and 1% DMSO was injected at 8 μL/min flow rate for 800 s contact time and immobilized until the instrument registered 2900–3500 RU (activation and protein immobalization spectrograms are provided as Supplementary Fig. 10). Drugs were dissolved in DMSO and were diluted with 20 mM HEPES pH 7.8, 150 mM NaCl (final DMSO concentration of 1% v/v) and were injected at a flow rate of 50 μL/min. Single-cycle kinetics were applied for KD evaluation and binding affinity using TraceDrawer v.1.8.1 (Ridgeview Instruments AB).

## CCCCCCOC(=O)c1ccc(Nc2c([N+](=O)[O-])cc(C(=O)O)cc2[N+](=O)[O-])cc1 [BV01, 4-((4-((hexyloxy)carbonyl)phenyl)amino)-3,5-dinitrobenzoic acid]
14-3-3ζ
  Binding by ITC: weak sign of binding
His-14-3-3ζ; SPR curve at 0.005 mM ligand
  Bmax ([Signal (RU)]): 100.98 RU
His-14-3-3ζ; SPR curve at 0.007 mM ligand
  Bmax ([Signal (RU)]): 147.7 RU
His-14-3-3ζ; SPR curve at 0.03 mM ligand
  Bmax ([Signal (RU)]): 198.6 RU
His-14-3-3ζ; SPR curve at 0.05 mM ligand
  Bmax ([Signal (RU)]): 257.38 RU
His-14-3-3ζ; SPR curve at 0.07 mM ligand
  Bmax ([Signal (RU)]): 320.07 RU
His-14-3-3ζ; SPR dissociation rate, value repeated per curve
  kd: 0.0112 s⁻¹
His-14-3-3ζ; SPR fit parameter, per curve
  BI ([Signal (RU)]): 0.1 RU
His-14-3-3ζ; SPR, immobilized His-14-3-3ζ, single-cycle kinetics, 1% DMSO
  pKd: 5.20
His-14-3-3ζ; pH 7.8, read-out: ka
  kon: 1770 M⁻¹ s⁻¹
